pIC50: −log10 of the molar value.
Tested on: 953936-095-R-J2-PDC spheroids with HUVEC/MSC, viability
Assay: Anticancer human tumor 953936-095-R-J2-PDC patient-derived cervical squamous cell carcinoma cell line growth inhibition [PI3K]
Conditions: for pIC50: curve of first compound; for viability, T/C: stronger effect = lower value
Source text: Combinatorial screen of targeted agents with the PI3K inhibitors inavolisib, alpelisib, duvelisib, and copanlisib in multi-cell type tumor spheroids
A high-throughput screen of multi-cell type tumor spheroids was designed to identify active combinations of targeted small molecules and PI3K pathway inhibitors. Complex spheroids include a stromal component modeled by human endothelial cells (HUVEC) and fibroblasts modeled by human mesenchymal stem cells (MSCs). The concentration ranges selected for each drug and investigational agent were based upon clinically achievable concentrations if the clinical Cmax of the agent was known.
Compounds. The drugs and investigational agents: inavolisib (NSC800729), alpelisib (NSC765974), duvelisib (NSC772469), copanlisib (NSC816437), ipatasertib (NSC767898), afuresertib (NSC778305), talazoparib (NSC767125), sapanisertib (NSC764658), selumetinib (NSC741078), tovorafenib (DAY101, NSC766906), vemurafenib (NSC761431), ravoxertinib (NSC781343), sotorasib (NSC818433), MRTX1133 (NSC 836407), abemaciclib (NSC 768073), palbociclib (NSC758247), venetoclax (NSC 766270), SY5609 (NSC837396), enzalutamide (NSC755605), and darolutamide (NSC825331), were obtained from the National Cancer Institute (NCI) Developmental Therapeutics Program Chemical Repository. The FDA-approved anticancer drug set is available from the NCI Developmental Therapeutics Program. […] The stock solutions were prepared in dimethyl sulfoxide (DMSO, Sigma-Aldrich, St. Louis, MO, cat. D2650) at 800-fold the tested concentration and stored at -70 degrees C prior to their use. All drugs and investigational agents were tested over a range starting from a high concentration at or near the clinical Cmax and decreasing in half-log increments. If the clinical Cmax for an agent had not been determined, the highest concentration tested was 10 microM.
Cell Culture. All cells were maintained in an incubator at 37 degrees C and 5% CO2 with 95% humidity. The PDC lines were cultured according to standard operating procedures established by the NCI PDMR (https://pdmr.cancer.gov/sops/default.htm). All PDCs were thawed and cultured in Matrigel-coated flasks prepared with a working solution of 1X Ham's F-12 nutrient mix, without supplementation (Invitrogen, Waltham, MA, cat. 11765054), 100 U/mL penicillin-streptomycin (Invitrogen, cat. 15140122), and 2.5% Matrigel (Corning Inc., Corning, NY, cat. 354248) for the first three passages. The 354836-022-R-J1-PDC, 475296-252-R-J1-PDC, and 997726-040-R-J2-PDC lines were cultured in 6A media, which includes advanced DMEM/F-12 (Thermo Fisher Scientific, cat. 12634028), 10 mM HEPES (Thermo Fisher Scientific, cat. 15630080), 1X GlutaMAX supplement (Thermo Fisher Scientific, cat. 35050061), 0.1 mg/mL primocin (InvivoGen, San Diego, CA, cat. ant-pm-2), 10% defined fetal bovine serum, heat inactivated (HyClone Laboratories Inc., Logan, UT, cat. SH30070.03HI), 50% L-WRN conditioned media (ATCC, cat. CRL-3276), 1.25 mM N-Acetyl-L-cysteine (Sigma-Aldrich, cat. A9165), 10 mM nicotinamide (Sigma-Aldrich, cat. N0636), 1X B-27 supplement (Thermo Fisher Scientific, cat. 17504044), 1X N-2 supplement (Thermo Fisher Scientific, cat. 17502048), and 10 microM Y-27632 dihydrochloride (Tocris Bioscience, Bristol, United Kingdom, cat. 1254). The 624824-186-R-J2-PDC line was cultured in 6C/Colon 1B media, which includes all 6A media components plus 50 ng/mL human EGF recombinant protein (Thermo Fisher Scientific, cat. PHG0311). […]

[1] = second compound 0.0316 µM, first compound 0.0316 µM
[2] = second compound 0.0316 µM, first compound 0.1 µM
[3] = second compound 0.0316 µM, first compound 0.316 µM
[4] = second compound 0.0316 µM, first compound 1 µM
[5] = second compound 0.0316 µM, first compound 3.16 µM
[6] = second compound 0.0316 µM, first compound 10 µM
[7] = second compound 0.1 µM, first compound 0.0316 µM
[8] = second compound 0.1 µM, first compound 0.1 µM
[9] = second compound 0.1 µM, first compound 0.316 µM
[10] = second compound 0.1 µM, first compound 1 µM
[11] = second compound 0.1 µM, first compound 3.16 µM
[12] = second compound 0.1 µM, first compound 10 µM
[13] = second compound 0.316 µM, first compound 0.0316 µM
[14] = second compound 0.316 µM, first compound 0.1 µM
[15] = second compound 0.316 µM, first compound 0.316 µM
[16] = second compound 0.316 µM, first compound 1 µM
[17] = second compound 0.316 µM, first compound 3.16 µM
[18] = second compound 0.316 µM, first compound 10 µM
[19] = second compound 1 µM, first compound 0.0316 µM
[20] = second compound 1 µM, first compound 0.1 µM
[21] = second compound 1 µM, first compound 0.316 µM
[22] = second compound 1 µM, first compound 1 µM
[23] = second compound 1 µM, first compound 3.16 µM
[24] = second compound 1 µM, first compound 10 µM
[25] = second compound 3.16 µM, first compound 0.0316 µM
[26] = second compound 3.16 µM, first compound 0.1 µM
[27] = second compound 3.16 µM, first compound 0.316 µM
[28] = second compound 3.16 µM, first compound 1 µM
[29] = second compound 3.16 µM, first compound 3.16 µM
[30] = second compound 3.16 µM, first compound 10 µM
[31] = second compound 10 µM, first compound 0.0316 µM
[32] = second compound 10 µM, first compound 0.1 µM
[33] = second compound 10 µM, first compound 0.316 µM
[34] = second compound 10 µM, first compound 1 µM
[35] = second compound 10 µM, first compound 3.16 µM
[36] = second compound 10 µM, first compound 10 µM
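Note: spheroids exposed to compounds for seven days before read-out.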

## C#Cc1c(F)ccc2cc(O)cc(-c3ncc4c(N5CC6CCC(C5)N6)nc(OCC56CCCN5CC(F)C6)nc4c3F)c12 (centres undefined) + CC(Nc1ncnc2nc[nH]c12)c1cc2cccc(Cl)c2c(=O)n1-c1ccccc1
Second compound 0.0316 µM
  pIC50: < 5.00
Second compound 0.1 µM
  pIC50: < 5.00
Second compound 0.316 µM
  pIC50: < 5.00
Second compound 1 µM
  pIC50: < 5.00
Second compound 3.16 µM
  pIC50: 5.20
Second compound 10 µM
  pIC50: 5.74
[1]
  viability, T/C: 90.6%
[2]
  viability, T/C: 91.9%
[3]
  viability, T/C: 105%
[4]
  viability, T/C: 97.1%
[5]
  viability, T/C: 91.3%
[6]
  viability, T/C: 67.2%
[7]
  viability, T/C: 95.2%
[8]
  viability, T/C: 98.3%
[9]
  viability, T/C: 99.9%
[10]
  viability, T/C: 104%
[11]
  viability, T/C: 80.2%
[12]
  viability, T/C: 70.8%
[13]
  viability, T/C: 94%
[14]
  viability, T/C: 95.2%
[15]
  viability, T/C: 90.5%
[16]
  viability, T/C: 82.2%
[17]
  viability, T/C: 75.2%
[18]
  viability, T/C: 67.8%
[19]
  viability, T/C: 96.2%
[20]
  viability, T/C: 83.5%
[21]
  viability, T/C: 84.7%
[22]
  viability, T/C: 86.9%
[23]
  viability, T/C: 80%
[24]
  viability, T/C: 57.2%
[25]
  viability, T/C: 87.9%
[26]
  viability, T/C: 79.5%
[27]
  viability, T/C: 76%
[28]
  viability, T/C: 74.3%
[29]
  viability, T/C: 60.3%
[30]
  viability, T/C: 42.6%
[31]
  viability, T/C: 55.8%
[32]
  viability, T/C: 65.4%
[33]
  viability, T/C: 51.7%
[34]
  viability, T/C: 57.3%
[35]
  viability, T/C: 43.3%
[36]
  viability, T/C: 31.2%

## C[C@@H](NC(=O)c1ncnc(N)c1Cl)c1ncc(C(=O)Nc2cc(C(F)(F)F)c(Cl)cn2)s1 + Cc1nc(NC(=O)N2CCCC2C(N)=O)sc1-c1ccnc(C(C)(C)C(F)(F)F)c1
Second compound 0.0316 µM
  pIC50: < 5.00
Second compound 0.1 µM
  pIC50: < 5.00
Second compound 0.316 µM
  pIC50: < 5.00
Second compound 1 µM
  pIC50: 6.72
Second compound 3.16 µM
  pIC50: > 7.50
Second compound 10 µM
  pIC50: > 7.50
[1]
  viability, T/C: 91.4%
[2]
  viability, T/C: 92.8%
[3]
  viability, T/C: 101%
[4]
  viability, T/C: 97.8%
[5]
  viability, T/C: 114%
[6]
  viability, T/C: 92.1%
[7]
  viability, T/C: 84.7%
[8]
  viability, T/C: 86%
[9]
  viability, T/C: 87%
[10]
  viability, T/C: 89.4%
[11]
  viability, T/C: 84.1%
[12]
  viability, T/C: 81.2%
[13]
  viability, T/C: 66.5%
[14]
  viability, T/C: 69.3%
[15]
  viability, T/C: 65.1%
[16]
  viability, T/C: 72%
[17]
  viability, T/C: 67%
[18]
  viability, T/C: 71.3%
[19]
  viability, T/C: 53.3%
[20]
  viability, T/C: 49.1%
[21]
  viability, T/C: 47.2%
[22]
  viability, T/C: 49.9%
[23]
  viability, T/C: 49.5%
[24]
  viability, T/C: 45.2%
[25]
  viability, T/C: 28.2%
[26]
  viability, T/C: 28.7%
[27]
  viability, T/C: 27.6%
[28]
  viability, T/C: 29%
[29]
  viability, T/C: 31%
[30]
  viability, T/C: 27.4%
[31]
  viability, T/C: 13.3%
[32]
  viability, T/C: 14.4%
[33]
  viability, T/C: 15%
[34]
  viability, T/C: 17%
[35]
  viability, T/C: 14.9%
[36]
  viability, T/C: 11.6%
